We go through one compound from patent publication US9133181B2, “Substituted 6-(4-hydroxy-phenyl)-1H-pyrazolo[3,4-b]pyridine derivatives as kinase inhibitors” (SANOFI, priority 2012, dated 2015).

Molecules are shown by their SMILES.

This test concerns the target T1, human full-length recombinant PKC βII (Homo sapiens, UniProt P05771).
T1 construct: Active human full-length recombinant PKC βII; purchased Invitrogen GmbH, Darmstadt, Germany
Put plainly: Determination of PKC βII inhibition (Caliper mobility shift kinase assay). In kind it is biochemical. The following applies: final compound concentration 1.14 μM (±0.15 μM); 60 min incubation at 32° C. Summed up:
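Compound was tested at a final 1.14 µM (±0.15 µM), with % inhibition derived from the product/(substrate+product) peak ratio on a Caliper mobility-shift read-out. Full-length PKC βII was activated by CaCl2, PS and DAG in pH 7.4 Hepes/MgCl2. Peptide and ATP were at 3 µM and 120 µM in the added mix. Incubation was 60 min at 32 °C.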

T1 sequence (P05771 1-673 isoform P05771-2): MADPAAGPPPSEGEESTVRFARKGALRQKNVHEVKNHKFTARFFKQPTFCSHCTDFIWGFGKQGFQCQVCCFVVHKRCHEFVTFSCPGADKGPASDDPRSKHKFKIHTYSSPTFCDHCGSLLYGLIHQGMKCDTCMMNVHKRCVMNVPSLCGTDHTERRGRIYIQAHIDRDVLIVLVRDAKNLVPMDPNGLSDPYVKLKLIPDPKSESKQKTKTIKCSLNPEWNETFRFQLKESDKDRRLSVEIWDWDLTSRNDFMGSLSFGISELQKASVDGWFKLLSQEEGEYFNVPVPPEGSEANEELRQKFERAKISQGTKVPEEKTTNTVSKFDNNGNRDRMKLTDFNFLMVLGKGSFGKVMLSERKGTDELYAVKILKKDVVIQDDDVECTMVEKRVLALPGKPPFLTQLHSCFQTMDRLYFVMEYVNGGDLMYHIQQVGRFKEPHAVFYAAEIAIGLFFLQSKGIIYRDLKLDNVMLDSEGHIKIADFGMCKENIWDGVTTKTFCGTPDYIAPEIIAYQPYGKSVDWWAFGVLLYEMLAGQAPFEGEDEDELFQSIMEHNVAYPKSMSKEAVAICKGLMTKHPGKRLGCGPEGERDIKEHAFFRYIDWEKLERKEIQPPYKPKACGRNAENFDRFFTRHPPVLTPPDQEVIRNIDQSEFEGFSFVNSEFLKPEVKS

As a reminder, the inhibition is how much of the control response was suppressed. With `Cc1n[nH]c2nc(-c3ccc(O)cc3F)cc(CN3C[C@H](C)NC[C@H]3C(F)(F)F)c12` [Example 154, 3-Fluoro-4-[3-methyl-4-((2S,5S)-5-methyl-2-trifluoromethyl-piperazin-1-ylmethyl)-1H-pyrazolo[3,4-b]pyridin-6-yl]-phenol], the inhibition at 1.14 µM amounted to 92%.
